The experiment has as its system H5V cells. Kind of experiment: Phototoxicity assay (PDT efficacy at two incubation times), neutral red survival. The format is cell-based, mouse. The note with it: then 10 min illumination, 12 J/cm^2. The method, then: H5V cells (40×10^3/well) were cultured in 96-well plates for 24 h to ˜80% confluence. To determine phototoxicity, the culture medium was replaced with 100 μl/well medium, in the absence or presence of 10^−8 to 10^−6 M sensitizer, and incubated in the dark for 15 min or 3 h in the culture incubator. The plates (PDT group) were then placed in the light field at room temperature and illuminated from the bottom for 10 min (800>λ>650 nm, 12 J/cm^2). After illumination, the medium was changed to fresh culture medium. The cultures were then placed in the culture incubator and cell survival was determined 24 h later, using the neutral red survival assay described below.
Following 24 h post PDT the culture medium in the wells was replaced with 100 μl fresh medium containing 40 μg/ml neutral red. The plate was incubated for 1.5 h in a dark culture incubator. The medium was aspirated and the cells washed with 100 μl of solution containing 1% CaCl2 and 0.5% formaldehyde, which removes the unincorporated dye and fixes the cells to the substratum. The dye was then extracted from the cells into the supernatant upon addition of 100 μl 1% glacial acetic acid in 50% ethanol. After 1-2 min at room temperature, the optical density of the wells was determined in a microplate spectrophotometer using a 570 nm filter. After subtraction of assay blanks, net optical density was computed as the average value of triplicate determinations. Cell survival was calculated as the percent of the dye accumulated in the untreated control. To determine cell survival data was plotted against sensitizer concentration. These curves were then used to calculated LD50 values.
Following synthesis, the compounds described in the Examples 23 to 75 above were purified, divided into equal aliquots and lyophilized for storage (desiccated at −20° C.). The exact material content was determined by HPLC-diode array detection, and the PDT efficacy was evaluated at two incubation times as described in the experimental section.

The mark [1] stands for this setting: 15 min incubation in the dark, read-out: IC50 15 min.
Setting [2] is: 3 h incubation in the dark, read-out: IC50 3 hours.

Where two headings read alike, the source gives them in different places.

In general, IC50 refers to the midpoint of a concentration-inhibition curve. `CC[C@H]1C2=NC(=Cc3c(C(C)=O)c(C)c4[n]3[Pd][n]3c(c(C)c(C(=O)NCC(O)CO)c3=C(CC(=O)OC)C3=NC(=C4)[C@@H](C)[C@@H]3CCC(=O)NCCNCCN(CC)CC)=C2)[C@@H]1C` (some centres unmarked) [Compound 52, Palladium 3^1-oxo-15-methoxycarbonylmethyl-Rhodobacteriochlorin-13^1-(2,3-dihydroxypropyl)amide-17^3-(2-[(2-N^2-diethylaminoethyl)amino]ethyl)amide]: the IC50 worked out at 830 nM under setting [1] and 890 nM under setting [2].
For `CC[C@H]1C2=NC(=Cc3c(C(C)=O)c(C)c4[n]3[Pd][n]3c(c(C)c(C(=O)NCC(O)CO)c3=C(CC(=O)OC)C3=NC(=C4)[C@@H](C)[C@@H]3CCC(=O)NCCN3CCOCC3)=C2)[C@@H]1C` (some centres unmarked) [Compound 53, Palladium 3^1-oxo-15-methoxycarbonylmethyl-Rhodobacteriochlorin-13^1-(2,3-dihydroxypropyl)amide-17^3-(2-morpholino-N-ethyl)amide], in that order: 2000 nM and 900 nM.
As to `CC[C@H]1C2=NC(=Cc3c(C(C)=O)c(C)c4[n]3[Pd][n]3c(c(C)c(C(=O)NCC(O)CO)c3=C(CC(=O)OC)C3=NC(=C4)[C@@H](C)[C@@H]3CCC(=O)NCCN3CCNCC3)=C2)[C@@H]1C` (some centres unmarked) [Compound 54, Palladium 3^1-oxo-15-methoxycarbonylmethyl-Rhodobacteriochlorin-13^1-(2,3-dihydroxypropyl)amide-17^3-(2-piperazino-N-ethyl)amide], the IC50 came out at 750 nM under setting [1] and 270 nM under setting [2].
For `CC[C@H]1C2=NC(=Cc3c(C(C)=O)c(C)c4[n]3[Pd][n]3c(c(C)c(C(=O)NCCNCCN)c3=C(CC(=O)OC)C3=NC(=C4)[C@@H](C)[C@@H]3CCC(=O)NCC(O)CO)=C2)[C@@H]1C` (some centres unmarked) [Compound 55, Palladium 3^1-oxo-15-methoxycarbonylmethyl-Rhodobacteriochlorin-13^1-(2-[(2-aminoethyl)amino]ethyl)amide-17^3-(2,3-dihydroxypropyl)amide], in that order: 1070 nM and 430 nM.
With `CC[C@H]1C2=NC(=Cc3c(C(C)=O)c(C)c4[n]3[Pd][n]3c(c(C)c(C(=O)NCC(O)CO)c3=C(CC(=O)OC)C3=NC(=C4)[C@@H](C)[C@@H]3CCC(=O)NCCNc3ccccn3)=C2)[C@@H]1C` (some centres unmarked) [Compound 56, Palladium 3^1-oxo-15-methoxycarbonylmethyl-Rhodobacteriochlorin-13^1-(2,3-dihydroxypropyl)amide-17^3-(2-N-(2′-pyridyl)aminoethyl)amide], the IC50 came out at 790 nM under setting [1] and 320 nM under setting [2].
For the compound `CCC1C2=Cc3c(C)c(C(=O)NCCNc4ccccn4)c4[n]3[Pd][n]3c(c(C)c(C(C)=O)c3=CC(=N2)C1C)=CC1=NC(=C4CC(=O)OC)C(CCC(=O)NCC(O)CO)C1C` (centres unmarked) [Compound 57, Palladium 3^1-oxo-15-methoxycarbonylmethyl-Rhodobacteriochlorin-13^1-(2-N-(2′-pyridyl)aminoethyl)amide-17^3-(2,3-dihydroxypropyl)amide], the IC50 reads like this: under setting [1], 1330 nM; under setting [2], 600 nM.
For `CC[C@H]1C2=NC(=Cc3c(C(C)=O)c(C)c4[n]3[Pd][n]3c(c(C)c(C(=O)NCC(O)CO)c3=C(CC(=O)OC)C3=NC(=C4)[C@@H](C)[C@@H]3CCC(=O)NCCN(CCN)CCN)=C2)[C@@H]1C` (some centres unmarked) [Compound 58, Palladium 3^1-oxo-15-methoxycarbonylmethyl-Rhodobacteriochlorin-13^1-(2,3-dihydroxypropyl)amide-17^3-([2-bis(2-aminoethyl)amino]ethyl)amide], in that order: 640 nM and 370 nM.
On to `CC(=O)O.CC(=O)O.CC(=O)O.CC[C@H]1C2=NC(=Cc3c(C(C)=O)c(C)c4[n]3[Pd][n]3c(c(C)c(C(=O)NCCN(CCN)CCN)c3=C(CC(=O)OC)C3=NC(=C4)[C@@H](C)[C@@H]3CCC(=O)NCC(O)CO)=C2)[C@@H]1C` (some centres unmarked) [Compound 59, Palladium 3^1-oxo-15-methoxycarbonylmethyl-Rhodobacteriochlorin-13^1-([2-bis(2-aminoethyl)amine]ethyl)amide-17^3-(2,3-dihydroxypropyl)amide], for which the IC50 runs as follows: under setting [1], 450 nM; under setting [2], 190 nM.
Take `CC(=O)O.CC[C@H]1C2=NC(=Cc3c(C(C)=O)c(C)c4[n]3[Pd][n]3c(c(C)c(C(=O)NCCCCN)c3=C(CC(=O)OC)C3=NC(=C4)[C@@H](C)[C@@H]3CCC(=O)NCC(O)CO)=C2)[C@@H]1C` (some centres unmarked) [Compound 61, Palladium 3^1-oxo-15-methoxycarbonylmethyl-Rhodobacteriochlorin-13^1-(4-aminobutyl)amide-17^3-(2,3-dihydroxypropyl) amide]: the IC50 is, setting by setting: under setting [1], 690 nM; under setting [2], 210 nM.
`CC(=O)O.CCNCCNC(=O)c1c(C)c2[n]3c1=C(CC(=O)OC)C1=NC(=Cc4c(C)c(C(C)=O)c([n]4[Pd]3)C=C3N=C(C=2)[C@H](CC)[C@H]3C)[C@@H](C)[C@@H]1CCC(=O)NCC(O)CO` (some centres unmarked) [Compound 63, Palladium 3^1-oxo-15-methoxycarbonylmethyl-Rhodobacteriochlorin-13^1-(2-N-ethylaminoethyl)amide-17^3-(2,3-dihydroxypropyl)amide]: the IC50 was determined as 660 nM under setting [1] and 210 nM under setting [2].
As for `CC(=O)O.CC[C@H]1C2=NC(=Cc3c(C(C)=O)c(C)c4[n]3[Pd][n]3c(c(C)c(C(=O)NCCCNC)c3=C(CC(=O)OC)C3=NC(=C4)[C@@H](C)[C@@H]3CCC(=O)NCC(O)CO)=C2)[C@@H]1C` (some centres unmarked) [Compound 64, Palladium 3^1-oxo-15-methoxycarbonylmethyl-Rhodobacteriochlorin-13^1-(3-N-methylaminopropyl)amide-17^3-(2,3-dihydroxypropyl)amide], the half-maximal inhibitory concentration (IC50) runs as follows: under setting [1], 560 nM; under setting [2], 170 nM.
For the compound `CC(=O)O.CC[C@H]1C2=NC(=Cc3c(C(C)=O)c(C)c4[n]3[Pd][n]3c(c(C)c(C(=O)NCCN(C)C)c3=C(CC(=O)OC)C3=NC(=C4)[C@@H](C)[C@@H]3CCC(=O)NCCCO)=C2)[C@@H]1C` [Compound 66, Palladium 3^1-oxo-15-methoxycarbonylmethyl-Rhodobacteriochlorin-13^1-(2-N^2-dimethylaminoethyl)amide-17^3-(3-hydroxypropyl)amide], the IC50 by setting is: under setting [1], 550 nM; under setting [2], 200 nM.
Consider `CC(=O)O.CC[C@H]1C2=NC(=Cc3c(C(C)=O)c(C)c4[n]3[Pd][n]3c(c(C)c(C(=O)NCCN(C)C)c3=C(CC(=O)OC)C3=NC(=C4)[C@@H](C)[C@@H]3CCC(=O)NCC(C)O)=C2)[C@@H]1C` (some centres unmarked) [Compound 67, Palladium 3^1-oxo-15-methoxycarbonylmethyl-Rhodobacteriochlorin-13^1-(2-N^2-dimethylaminoethyl)amide-17^3-(2-hydroxypropyl)amide], for which the IC50 runs as follows: under setting [1], 500 nM; under setting [2], 180 nM.
For `CC(=O)O.CC[C@H]1C2=NC(=Cc3c(C(C)=O)c(C)c4[n]3[Pd][n]3c(c(C)c(C(=O)NCCN(C)C)c3=C(CC(=O)OC)C3=NC(=C4)[C@@H](C)[C@@H]3CCC(=O)NC[C@H](C)O)=C2)[C@@H]1C` [Compound 69, Palladium 3^1-oxo-15-methoxycarbonylmethyl-Rhodobacteriochlorin-13^1-(2-N^2-dimethylaminoethyl)amide-17^3-((S)-2-hydroxypropyl)amide], in that order: 500 nM and 160 nM.
Consider `CC(=O)O.CC(=O)O.CC[C@H]1C2=NC(=Cc3c(C(C)=O)c(C)c4[n]3[Pd][n]3c(c(C)c(C(=O)NCC(O)CO)c3=C(CC(=O)OC)C3=NC(=C4)[C@@H](C)[C@@H]3CCC(=O)NCCCCNc3ccccn3)=C2)[C@@H]1C` (some centres unmarked) [Compound 74, Palladium 3^1-oxo-15-methoxycarbonylmethyl-Rhodobacteriochlorin-13^1-(2,3-dihydroxypropyl)amide-17^3-(4-N-(2′-pyridyl)aminobutyl)amide], for which the IC50 is, setting by setting: under setting [1], 740 nM; under setting [2], 290 nM.
For “Palladium 3^1-oxo-15-methoxycarbonylmethyl-Rhodobacteriochlorin-13^1-(2,3-dihydroxypropyl)amide-17^3-(3-N-(2′-pyridyl)aminopropyl)amide [Compound 73]”, the IC50 stood at 380 nM under setting [1] and 300 nM under setting [2].
As for “Palladium 3^1-oxo-15-methoxycarbonylmethyl-Rhodobacteriochlorin-13^1-(2-N-dimethylaminoethyl)amide-17^3-(2-hydroxy ethyl)amide [Compound 65]”, the IC50 under setting [1] is 430 nM and the IC50 under setting [2] stood at 220 nM.
For “Palladium 3^1-oxo-15-methoxycarbonylmethyl-Rhodobacteriochlorin-13^1-(2-N^2-diethylaminoethyl)amide-17^3-(2,3-dihydroxy propyl)amide [Compound 62]”, in that order: 630 nM and 190 nM.
Consider “Palladium 3^1-oxo-15-methoxycarbonylmethyl-Rhodobacteriochlorin-13^1-(2-N^2-dimethylaminoethyl)amide-17^3-(2-(2-hydroxyethylamino)ethyl)amide [Compound 70]”, for which the IC50 is, setting by setting: under setting [1], 550 nM; under setting [2], 160 nM.

These data come from patent US8207154B2, “Catatonic bacteriochlorophyll derivatives” (Yeda Research and Development Co., Ltd., priority 2005, dated 2012).
